The source of these data is PubChem BioAssay (NCI).

Some test systems named below: A498 renal; CCRF-CEM leukemia; HCT-116 colon; HOP-62 NSCLC; NCI-H522 lung; NCI/ADR-RES ovarian; PC-3 prostate; SF-539 CNS; SK-MEL-5 melanoma; UO-31 renal.
Common to all, as to assay: growth of human tumour cells (NCI), 48 h

Structures are written as SMILES.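 Exposure lasted 48 hours, with cells grown in 96-well plates and compounds tested at five concentrations. At the TGI there is no net growth.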

Consider `C=CC/C(C(=O)OC)=C(/C(=O)OC)N(CCC)CCC`, for which the TGI in the assay on A498 renal, with CCRF-CEM leukemia, in the assay on HCT-116 colon, with HOP-62 NSCLC, in the assay on NCI-H522 lung and with NCI/ADR-RES ovarian was more than 100 µM each time. For the same compound, the TGI in the assay with PC-3 prostate, in the assay on SF-539 CNS, in the assay with SK-MEL-5 melanoma and in the assay on UO-31 renal was more than 100 µM each time.
Turning to `O=C1OC[C@@H]2Cc3c([nH]c4ccccc34)[C@@H](c3ccc(O)cc3)N12`, the TGI with A498 renal was more than 81 µM; in the assay on CCRF-CEM leukemia, more than 84.4 µM; in the assay with HCT-116 colon it was 35 µM; with HOP-62 NSCLC, more than 84.6 µM; in the assay with NCI-H522 lung, 77.6 µM; with NCI/ADR-RES ovarian it was more than 100 µM. Moreover, the TGI in the assay with PC-3 prostate was more than 100 µM; in the assay on SF-539 CNS, more than 74 µM; with SK-MEL-5 melanoma, 33.2 µM; in the assay with UO-31 renal, more than 100 µM.
On to `N#Cc1c(OCCF)c2ccccc2n2c1nc1ccccc12`, for which the TGI with A498 renal, in the assay with CCRF-CEM leukemia, with HCT-116 colon, in the assay with HOP-62 NSCLC, with NCI-H522 lung and in the assay with NCI/ADR-RES ovarian was more than 100 µM in each case. Further, the TGI in the assay on PC-3 prostate was more than 100 µM; in the assay with SF-539 CNS, 52.3 µM; in the assay on SK-MEL-5 melanoma, more than 100 µM; in the assay on UO-31 renal, more than 100 µM.
As for `Cc1nc(Cl)c(CBr)c(Cl)n1`, the TGI in the assay on A498 renal is 24.7 µM; in the assay with CCRF-CEM leukemia, 0.772 µM; in the assay on HCT-116 colon it was 1.19 µM; in the assay on HOP-62 NSCLC it was 4.03 µM; in the assay on NCI-H522 lung, 1.15 µM; in the assay with NCI/ADR-RES ovarian it was 7.8 µM. Moreover, the TGI in the assay with PC-3 prostate is 3.13 µM; with SF-539 CNS, 3.72 µM; with SK-MEL-5 melanoma, 2.88 µM; in the assay with UO-31 renal it was 3.2 µM.
Consider `O=C1C(C=NCCc2c[nH]c3ccccc23)C(C(F)(F)F)=NN1c1nc2ccccc2s1` (stereo not given), for which the TGI in the assay with A498 renal was 42.1 µM; with CCRF-CEM leukemia it was 57.8 µM; with HCT-116 colon, more than 100 µM; in the assay with HOP-62 NSCLC, 46.9 µM; in the assay with NCI-H522 lung, 43.6 µM; with NCI/ADR-RES ovarian, 78 µM. Besides, the TGI with PC-3 prostate was 97.8 µM; with SF-539 CNS it was 86.4 µM; in the assay with SK-MEL-5 melanoma, 37.1 µM; in the assay on UO-31 renal it was more than 100 µM.
As for `Cc1cccc(N(CCC#N)S(=O)(=O)c2ccccc2)c1`, the TGI with A498 renal, with CCRF-CEM leukemia, with HCT-116 colon, with HOP-62 NSCLC, in the assay with NCI-H522 lung and with NCI/ADR-RES ovarian was more than 100 µM each time. Also, the TGI with PC-3 prostate, with SF-539 CNS, in the assay with SK-MEL-5 melanoma and in the assay with UO-31 renal was more than 100 µM each time.
